From patent US20130071897A1, “METHOD FOR CONTROLLING UNDESIRABLE BYPRODUCTS FORMATION CAUSED BY CONTAMINATING ORGANISMS IN THE PRODUCTION OF ETHANOL FROM SYNGAS” (COSKATA, INC., priority 2011, published 2013)
Where “and” joins values, the source holds several entries; their conditions need not be identical. Identical values can stand only once.

Key:
C. autoethanogenum = assay: Toxicity to C. autoethanogenum by batch fermentation using syngas substrate, optical density; assay type: cell-based, Clostridium autoethanogenum; details: for O.D. Response of Various Inhibitors on C. autoethanogenum: Table 21, one value per compound; for O.D. Response to Various Inhibitors: duplicates A and B, amount not given
Protocol: In this example various crotonate-like compounds on are evaluated for toxicity to C. autoethanogenum by batch fermentation using syngas substrate. The batch fermentations are conducted by anoxically filling 100 mL serum bottles with 10 mL of media having the composition given in Tables 12 and 13. Duplicate runs are conducted for each concentration. The compounds are: • C-1 Ethyl 4,4,4-trifluoro-3-(trifluoromethyl)crotonate • C-4 4,4,4-Trifluorocrotonamide • C-9 Ethyl 4,4,4-Trifluoro-3-(amino)crotonate • C-18 3 trifluoromethyl-4-methoxybenzoate.
Each bottle is inoculated with 1.0 mL of seed culture inoculum from an active fermenter using syngas substrate and containing Clostridium autoethanogenum, which inoculum has an OD of about 4.92 (which upon a 10 times dilution provides a starting OD for the fermentation of about 0.49). The bottles are gased with syngas to about 100 kilopascals and maintained at a temperature of 37° C. The bottles are regassed with syngas every 8 to 12 hours. The syngas has the approximate composition set forth in Examples 6 to 10. Twenty four hours after inoculation of the bottles with the bacteria, the compounds are added to different bottles as a solution in 50 μL of N-methylpyrrolidone in the amounts indicated in Tables 20 and 21. The fermentation process is allowed to progress at 37° C. At selected intervals of time, bacterial growth is measured by reading the OD of the fermentation liquid using a Thermo Spectronic Genesys 20 spectrophotometer. Optical density is measured by anoxically removing an aliquot of fermentation liquid and adding it to a disposable cuvette. OD's ranging between 0.01 and 0.4 are measured using fermentation liquid directly, while OD's greater than 0.4 are measure after performing a 1/10 dilution with water.

[1] = system: Clostridium carboxydivorans; assay: Balch tube batch growth of heteroacetogenic bacteria Clostridium carboxydivorans on fructose, optical density; assay type: cell-based; design: key to Optical density valuation of C. carboxidivorans: +: bacterial growth to an OD of approximately 1.8; +/−: one duplicate test tube showed a + indication and the other showed an optical density of less than 0.5; details: for Optical density valuation of C. carboxidivorans: added 20 h after inoculation; for Inhibition effect for reducing butyrogen growth: summary of Examples 1-5
Protocol: Similar experiments were conducted to determine the effect of the crotonate derivatives on heteroacetogenic bacteria. Selected crotonate derivatives were tested in a series of batch experiments to determine the growth response of butyrogens to the presence of the compounds at varying concentrations. The batch experiments were all conducted by anoxically filling a 20 ml Balch tube with 5 ml of a fermentation medium having the composition given in Tables 2 and 3. The media included 0.5 v/v final concentration of a fructose substrate. For each of the crotonate concentrations tested, duplicate test tubes were prepared.
Each tube was inoculated with 0.5 ml of the heteroacetogenic bacteria Clostridium carboxydivorans. The tubes were maintained at a temperature of 37° C. At a time 20 hours after the inoculation of the bacteria different crotonate derivatives from Table 1 were added to different tubes in the amounts indicated in Table 7. This was at a time of early to mid-log phase growth. Each fermentation of the bacteria in the media at the different concentration of crotonate derivatives were allowed to progress and were monitored to determine the bacteria growth at selected intervals of time varying from approximately 20 hours to 54 hours. Growth at the different intervals was measured by reading the optical density (OD) of the fermentation liquid. Optical density was measured as described in Example 1. The ability of a tube fermentation at a particular concentration of crotonate derivative to reach a predetermined optical density was recorded in Table 7. Table 7 indicates the presence of bacterial growth to an OD of approximately 1.8 with a “+”.
Compound A was tested again in set of experiments in all respects the same as that described for Example 4 except that compound A was added to Balch tubes in the amounts indicated in Table 7 at a time 5.5 hours after the inoculation of the bacteria. This was at a time in early log phase growth. In this case the Balch tube that contained no compound A reached an OD of 2 after 29 hours or less.

[2] = 0 Hours, added 24 h after inoculation
[3] = 2.5 Hours, added 24 h after inoculation
[4] = 6.5 Hours, added 24 h after inoculation
[5] = 24.5 Hours, added 24 h after inoculation

Structure (SMILES)	O.D. Response of Various Inhibitors on C. autoethanogenum (C. autoethanogenum; [2])	O.D. Response of Various Inhibitors on C. autoethanogenum (C. autoethanogenum; [3])	O.D. Response of Various Inhibitors on C. autoethanogenum (C. autoethanogenum; [4])	O.D. Response of Various Inhibitors on C. autoethanogenum (C. autoethanogenum; [5])	O.D. Response of Various Inhibitors on C. autoethanogenum (C. autoethanogenum; 30.5 Hours)	O.D. Response of Various Inhibitors on C. autoethanogenum (C. autoethanogenum; 47.5 Hours)	O.D. Response of Various Inhibitors on C. autoethanogenum (C. autoethanogenum; 56 Hours)	O.D. Response to Various Inhibitors (C. autoethanogenum; [2])	Optical density valuation of C. carboxidivorans ([1]; 100 ppm(m))	Optical density valuation of C. carboxidivorans ([1]; 500 ppm(m))	Optical density valuation of C. carboxidivorans ([1]; 1000 ppm(m))	Inhibition effect for reducing butyrogen growth [1]	other results
CCOC(=O)/C=C(\N)C(F)(F)F [B, ethyl-3-amino-4,4,4-trifluorocrotonate]	0.49	0.41	0.44	1.06	1.38	1.90	1.98	0.49	–	–	–	–	O.D. Response to Various Inhibitors (C. autoethanogenum; 2.5 Hours, added 24 h after inoculation, listed as C-9): 0.40 and 0.42; O.D. Response to Various Inhibitors (C. autoethanogenum; 6.5 Hours, added 24 h after inoculation, listed as C-9): 0.42 and 0.46; O.D. Response to Various Inhibitors (C. autoethanogenum; 24.5 Hours, added 24 h after inoculation, listed as C-9): 1.14 and 0.97; O.D. Response to Various Inhibitors (C. autoethanogenum; 30.5 Hours, added 24 h after inoculation, listed as C-9): 1.28 and 1.47; O.D. Response to Various Inhibitors (C. autoethanogenum; 47.5 Hours, added 24 h after inoculation, listed as C-9): 1.67 and 2.12
CCOC(=O)C=C(C(F)(F)F)C(F)(F)F [Compound A, ethyl 4,4,4-trifluoro-3-(trifluoromethyl)crotonate]	0.49	0.44	0.44	1.12	1.18	0.66	0.58	0.49	+ (bacterial growth to an OD of approximately 1.8)	+ (bacterial growth to an OD of approximately 1.8)	+ (bacterial growth to an OD of approximately 1.8)	showed inhibition effect	O.D. Response to Various Inhibitors (C. autoethanogenum; 2.5 Hours, added 24 h after inoculation, listed as C-1): 0.42 and 0.46; O.D. Response to Various Inhibitors (C. autoethanogenum; 6.5 Hours, added 24 h after inoculation, listed as C-1): 0.42 and 0.46; O.D. Response to Various Inhibitors (C. autoethanogenum; 24.5 Hours, added 24 h after inoculation, listed as C-1): 1.17 and 1.08; O.D. Response to Various Inhibitors (C. autoethanogenum; 30.5 Hours, added 24 h after inoculation, listed as C-1): 1.15 and 1.22; O.D. Response to Various Inhibitors (C. autoethanogenum; 47.5 Hours, added 24 h after inoculation, listed as C-1): 0.66 and 0.67; OD of C. carboxidivorans tube fermentations ([1]; 500 and 1000 ppm added 5.5 hours after inoculation): ≤ 0.5
O=C(O)C=C(C(F)(F)F)C(F)(F)F [D, 4,4,4-trifluoro-3-(trifluoromethyl)crotonic acid]	–	–	–	–	–	–	–	–	+ (bacterial growth to an OD of approximately 1.8)	+ (bacterial growth to an OD of approximately 1.8)	+/−	showed inhibition effect	–
